From ChEMBL document CHEMBL4321806 (J Med Chem, 2019)

Test system: HFF-1
Assay: Cytotoxicity against human HFF1 cells assessed as reduction in cell viability
Format: cell-based
For `COC(=O)c1cccc(COc2c(-c3ccc(OCCOCCOCCn4cc(-c5ccc(-c6cn(CCOCCOCCOc7ccc(-c8oc9ccccc9c(=O)c8OCc8cccc(C(=O)OC)c8)cc7)nn6)cc5)nn4)cc3)oc3ccccc3c2=O)c1`, the IC50 was > 100 µM. With `COC(=O)c1cccc(COc2c(-c3ccc(OCCOCCOCCn4cc(CN(Cc5ccccc5)Cc5cn(CCOCCOCCOc6ccc(-c7oc8ccccc8c(=O)c7OCc7cccc(C(=O)OC)c7)cc6)nn5)nn4)cc3)oc3ccccc3c2=O)c1` the IC50 was > 100 µM.

Test system: not listed separately
Assay: Cytotoxicity against mouse L929 cells assessed as reduction in cell viability
In the case of `O=c1cc(-c2ccccc2)oc2cc(OCCN(Cc3ccccc3)Cc3cn(CCOc4ccc5c(=O)cc(-c6ccccc6)oc5c4)nn3)ccc12`, the IC50 is reported as > 100 µM. For `COC(=O)c1cccc(COc2c(-c3ccc(OCCOCCn4cc(CN5CCCN(Cc6cn(CCOCCOc7ccc(-c8oc9ccccc9c(=O)c8OCc8cccc(C(=O)OC)c8)cc7)nn6)CC5)nn4)cc3)oc3ccccc3c2=O)c1`, the IC50 was > 100 µM. With `COC(=O)c1cccc(COc2c(-c3ccc(OCCOCCOCCn4cc(-c5ccc(-c6cn(CCOCCOCCOc7ccc(-c8oc9ccccc9c(=O)c8OCc8cccc(C(=O)OC)c8)cc7)nn6)cc5)nn4)cc3)oc3ccccc3c2=O)c1` the IC50 was > 100 µM. In the case of `Cc1ccc2oc(-c3ccc(OCCCCc4cn(CCN(CCOc5ccc6c(=O)cc(-c7ccccc7)oc6c5)Cc5ccccc5)nn4)cc3)cc(=O)c2c1`, the IC50 is reported as > 100 µM. With `Cc1ccc2oc(-c3ccc(OCCOCCOCCn4cc(CN(CCOc5ccc6c(=O)cc(-c7ccccc7)oc6c5)Cc5ccccc5)nn4)cc3)cc(=O)c2c1` the IC50 was > 100 µM. With `Cc1ccc2oc(-c3ccc(OCCCCc4cn(CCOCCOCCOc5ccc(-c6cc(=O)c7ccccc7o6)cc5)nn4)cc3)cc(=O)c2c1` the IC50 was > 50 µM. With `COC(=O)c1cccc(COc2c(-c3ccc(OCCOCCOCCn4cc(CN(Cc5ccccc5)Cc5cn(CCOCCOCCOc6ccc(-c7oc8ccccc8c(=O)c7OCc7cccc(C(=O)OC)c7)cc6)nn5)nn4)cc3)oc3ccccc3c2=O)c1` the IC50 was > 100 µM. With `O=c1cc(-c2ccccc2)oc2cc(OCCOCCOCCn3cc(CN(Cc4ccccc4)Cc4cn(CCOCCOCCOc5ccc6c(=O)cc(-c7ccccc7)oc6c5)nn4)nn3)ccc12` the IC50 was > 100 µM. For `Cc1ccc2oc(-c3ccc(OCCCCc4cn(CCOCCOCCOc5ccc(-c6oc7ccccc7c(=O)c6OCc6ccccc6)cc5)nn4)cc3)cc(=O)c2c1`, the IC50 was > 100 µM. In the case of `Cc1ccc2oc(-c3ccc(OCCOCCOCCn4cc(CCCOc5ccc6c(=O)cc(-c7ccccc7)oc6c5)nn4)cc3)cc(=O)c2c1`, the IC50 is reported as > 50 µM. With `O=c1c(OCc2ccccc2)c(-c2ccc(OCCOCCOCCn3cc(CN(Cc4ccccc4)Cc4cn(CCOCCOCCOc5ccc(-c6oc7ccccc7c(=O)c6OCc6ccccc6)cc5)nn4)nn3)cc2)oc2ccccc12` the IC50 was > 100 µM. For `COC(=O)c1cccc(COc2c(-c3ccc(OCCOCCn4cc(CN5CCN(Cc6cn(CCOCCOc7ccc(-c8oc9ccccc9c(=O)c8OCc8cccc(C(=O)OC)c8)cc7)nn6)CC5)nn4)cc3)oc3ccccc3c2=O)c1`, the IC50 was > 100 µM. In the case of `Cc1ccc2oc(-c3ccc(OCCOCCOCCOCCOCCOc4ccc(-c5cc(=O)c6cc(C)ccc6o5)cc4)cc3)cc(=O)c2c1`, the IC50 is reported as > 100 µM. With `O=c1cc(-c2ccccc2)oc2cc(OCCOCc3cn(CCOCCOc4ccc(-c5oc6ccccc6c(=O)c5OCc5ccccc5)cc4)nn3)ccc12` the IC50 was > 100 µM. With `Cc1ccc2oc(-c3ccc(OCCCCc4cn(CCOCCOc5ccc(-c6oc7ccccc7c(=O)c6OCc6ccccc6)cc5)nn4)cc3)cc(=O)c2c1` the IC50 was > 100 µM. In the case of `COC(=O)c1cccc(COc2c(-c3ccc(OCCOCCn4cc(-c5ccc(-c6cn(CCOCCOc7ccc(-c8oc9ccccc9c(=O)c8OCc8cccc(C(=O)OC)c8)cc7)nn6)cc5)nn4)cc3)oc3ccccc3c2=O)c1`, the IC50 is reported as > 100 µM. For `O=c1cc(-c2ccc(OCCOCCn3cc(CN(Cc4ccccc4)Cc4cn(CCOCCOc5ccc(-c6cc(=O)c7ccccc7o6)cc5)nn4)nn3)cc2)oc2ccccc12`, the IC50 was > 100 µM. With `Cc1ccc2oc(-c3ccc(OCCOCCOCCn4cc(CCCCOc5ccc6c(=O)cc(-c7ccccc7)oc6c5)nn4)cc3)cc(=O)c2c1` the IC50 was > 50 µM. With `COC(=O)c1cccc(COc2c(-c3ccc(OCCOCCOCCn4cc(COCCOc5ccc6c(=O)cc(-c7ccccc7)oc6c5)nn4)cc3)oc3ccccc3c2=O)c1` the IC50 was > 100 µM. Work on `O=c1cc(-c2ccc(OCCOCCOCCn3cc(CCCOc4ccc5c(=O)cc(-c6ccccc6)oc5c4)nn3)cc2)oc2ccccc12` yielded an IC50 of 12 µM. For `COC(=O)c1cccc(COc2c(-c3ccc(OCCOCCOCCn4cc(CCCOc5ccc6c(=O)cc(-c7ccccc7)oc6c5)nn4)cc3)oc3ccccc3c2=O)c1`, the IC50 was > 100 µM. In the case of `O=c1cc(-c2ccccc2)oc2cc(OCCOCCn3cc(COCCOc4ccc5c(=O)cc(-c6ccccc6)oc5c4)nn3)ccc12`, the IC50 is reported as > 100 µM. With `Cc1ccc2oc(-c3ccc(OCCOCCOCCn4cc(COCCOc5ccc6c(=O)cc(-c7ccccc7)oc6c5)nn4)cc3)cc(=O)c2c1` the IC50 was > 100 µM. With `COC(=O)c1cccc(COc2c(-c3ccc(OCCOCCOCCn4cc(CN5CCN(Cc6cn(CCOCCOCCOc7ccc(-c8oc9ccccc9c(=O)c8OCc8cccc(C(=O)OC)c8)cc7)nn6)CC5)nn4)cc3)oc3ccccc3c2=O)c1` the IC50 was > 100 µM. For `O=c1cc(-c2ccccc2)oc2cc(OCCOCCOCCn3cc(CN(CCOc4ccc5c(=O)cc(-c6ccccc6)oc5c4)Cc4ccccc4)nn3)ccc12`, the IC50 was > 100 µM. `O=c1cc(-c2ccccc2)oc2cc(OCCOCCOCCn3cc(COCCOc4ccc5c(=O)cc(-c6ccccc6)oc5c4)nn3)ccc12` showed an IC50 of 12.1 µM. In the case of `O=c1cc(-c2ccccc2)oc2cc(OCCOCc3cn(CCOCCOc4ccc(-c5cc(=O)c6cc(F)ccc6o5)cc4)nn3)ccc12`, the IC50 is reported as > 100 µM. For `O=c1cc(-c2ccccc2)oc2cc(OCCCCc3cn(CCOCCOCCOc4ccc5c(=O)cc(-c6ccccc6)oc5c4)nn3)ccc12`, the IC50 was > 100 µM. For `COC(=O)c1cccc(COc2c(-c3ccc(OCCOCCn4cc(CCCOc5ccc(-c6cc(=O)c7ccc(F)cc7o6)cc5)nn4)cc3)oc3ccccc3c2=O)c1`, the IC50 was > 100 µM. For `O=c1cc(-c2ccccc2)oc2cc(OCCCc3cn(CCOCCOCCOc4ccc5c(=O)cc(-c6ccccc6)oc5c4)nn3)ccc12`, the IC50 was > 50 µM. With `COC(=O)c1cccc(COc2c(-c3ccc(OCCOCCn4cc(CN(C)CCN(C)Cc5cn(CCOCCOc6ccc(-c7oc8ccccc8c(=O)c7OCc7cccc(C(=O)OC)c7)cc6)nn5)nn4)cc3)oc3ccccc3c2=O)c1` the IC50 was > 100 µM. In the case of `O=c1cc(-c2ccccc2)oc2cc(OCCN(Cc3ccccc3)Cc3cn(CCOCCOCCOc4ccc(-c5oc6ccccc6c(=O)c5OCc5ccccc5)cc4)nn3)ccc12`, the IC50 is reported as > 100 µM. `Cc1ccc2oc(-c3ccc(OCCCCc4cn(CCOc5ccc6c(=O)cc(-c7ccccc7)oc6c5)nn4)cc3)cc(=O)c2c1` showed an IC50 of 9.2 µM. With `O=c1cc(-c2ccccc2)oc2cc(OCCCCc3cn(CCOCCOc4ccc(-c5oc6ccccc6c(=O)c5OCc5ccccc5)cc4)nn3)ccc12` the IC50 was > 100 µM. In the case of `O=c1cc(-c2ccccc2)oc2cc(OCCCCc3cn(CCOCCOc4ccc(-c5cc(=O)c6cc(F)ccc6o5)cc4)nn3)ccc12`, the IC50 is reported as > 100 µM. In the case of `O=c1cc(-c2ccccc2)oc2cc(OCCCCc3cn(CCOCCOCCOc4ccc(-c5cc(=O)c6cc(F)ccc6o5)cc4)nn3)ccc12`, the IC50 is reported as > 100 µM. With `Cc1ccc2oc(-c3ccc(OCCOCCOCCn4cc(CN(Cc5ccccc5)Cc5cn(CCOCCOCCOc6ccc(-c7cc(=O)c8cc(C)ccc8o7)cc6)nn5)nn4)cc3)cc(=O)c2c1` the IC50 was > 100 µM. In the case of `COC(=O)c1cccc(COc2c(-c3ccc(OCCOCCOCCn4cc(CCCCOc5ccc(-c6cc(=O)c7cc(C)ccc7o6)cc5)nn4)cc3)oc3ccccc3c2=O)c1`, the IC50 is reported as > 100 µM. With `COC(=O)c1cccc(COc2c(-c3ccc(OCCOCCn4cc(CN(Cc5ccncc5)Cc5cn(CCOCCOc6ccc(-c7oc8ccccc8c(=O)c7OCc7cccc(C(=O)OC)c7)cc6)nn5)nn4)cc3)oc3ccccc3c2=O)c1` the IC50 was > 50 µM. For `COC(=O)c1cccc(COc2c(-c3ccc(OCCOCCn4cc(CCCCOc5ccc6c(=O)cc(-c7ccccc7)oc6c5)nn4)cc3)oc3ccccc3c2=O)c1`, the IC50 was > 100 µM. With `COC(=O)c1cccc(COc2c(-c3ccc(OCCOCCn4cc(CCCCOc5ccc(-c6cc(=O)c7cc(C)ccc7o6)cc5)nn4)cc3)oc3ccccc3c2=O)c1` the IC50 was > 100 µM. For `COC(=O)c1cccc(COc2c(-c3ccc(OCCOCCn4cc(CCCOc5ccc6c(=O)cc(-c7ccccc7)oc6c5)nn4)cc3)oc3ccccc3c2=O)c1`, the IC50 was > 100 µM. For `O=c1cc(-c2ccc(OCCCc3cn(CCOCCOCCOc4ccc(-c5oc6ccccc6c(=O)c5OCc5ccccc5)cc4)nn3)cc2)oc2cc(F)ccc12`, the IC50 was > 100 µM. For `Cc1ccc2oc(-c3ccc(OCCCCc4cn(CCOCCOCCOc5ccc6c(=O)cc(-c7ccccc7)oc6c5)nn4)cc3)cc(=O)c2c1`, the IC50 was > 100 µM. In the case of `O=c1cc(-c2ccccc2)oc2cc(OCCOCCn3cc(CN(Cc4ccccc4)Cc4cn(CCOCCOc5ccc6c(=O)cc(-c7ccccc7)oc6c5)nn4)nn3)ccc12`, the IC50 is reported as > 100 µM. With `O=c1cc(-c2ccc(OCCOCCOCCn3cc(CCCCOc4ccc5c(=O)cc(-c6ccccc6)oc5c4)nn3)cc2)oc2ccccc12` the IC50 was > 50 µM. With `COC(=O)c1cccc(COc2c(-c3ccc(OCCOCCOCCn4cc(CCCCOc5ccc6c(=O)cc(-c7ccccc7)oc6c5)nn4)cc3)oc3ccccc3c2=O)c1` the IC50 was > 100 µM. In the case of `O=c1cc(-c2ccccc2)oc2cc(OCCOCc3cn(CCOCCOCCOc4ccc(-c5cc(=O)c6cc(F)ccc6o5)cc4)nn3)ccc12`, the IC50 is reported as > 50 µM. In the case of `O=c1cc(-c2ccc(OCCCc3cn(CCOCCOCCOc4ccc5c(=O)cc(-c6ccccc6)oc5c4)nn3)cc2)oc2cc(F)ccc12`, the IC50 is reported as > 100 µM. With `O=c1cc(-c2ccccc2)oc2cc(OCCn3cc(CN(Cc4ccccc4)Cc4cn(CCOc5ccc6c(=O)cc(-c7ccccc7)oc6c5)nn4)nn3)ccc12` the IC50 was > 100 µM. For `O=c1cc(-c2ccccc2)oc2cc(OCCCCc3cn(CCOCCOc4ccc5c(=O)cc(-c6ccccc6)oc5c4)nn3)ccc12`, the IC50 was > 100 µM. For `O=c1cc(-c2ccc(OCCOCCOCCn3cc(COCCOc4ccc5c(=O)cc(-c6ccccc6)oc5c4)nn3)cc2)oc2ccccc12`, the IC50 was 22 µM. With `Cc1ccc2oc(-c3ccc(OCCCCc4cn(CCN(CCOc5ccc(-c6cc(=O)c7ccccc7o6)cc5)Cc5ccccc5)nn4)cc3)cc(=O)c2c1` the IC50 was > 100 µM. In the case of `OCCOCCn1cc(CN(Cc2ccccc2)Cc2cn(CCOCCO)nn2)nn1`, the IC50 is reported as > 100 µM. In the case of `COC(=O)c1cccc(COc2c(-c3ccc(OCCOCCOCCn4cc(CCCOc5ccc(-c6cc(=O)c7ccc(F)cc7o6)cc5)nn4)cc3)oc3ccccc3c2=O)c1`, the IC50 is reported as > 100 µM. With `O=c1cc(-c2ccccc2)oc2cc(OCCCCc3cn(CCOCCOCCOc4ccc(-c5oc6ccccc6c(=O)c5OCc5ccccc5)cc4)nn3)ccc12` the IC50 was > 100 µM. With `O=c1cc(-c2ccccc2)oc2cc(OCCCc3cn(CCOCCOCCOc4ccc(-c5oc6ccccc6c(=O)c5OCc5ccccc5)cc4)nn3)ccc12` the IC50 was > 100 µM. For `COC(=O)c1cccc(COc2c(-c3ccc(OCCOCCn4cc(COCCOc5ccc6c(=O)cc(-c7ccccc7)oc6c5)nn4)cc3)oc3ccccc3c2=O)c1`, the IC50 was > 100 µM.

Test system: NIH3T3
Assay: Cytotoxicity against mouse 3T3 cells assessed as reduction in cell viability
Format: cell-based
In the case of `COC(=O)c1cccc(COc2c(-c3ccc(OCCOCCOCCn4cc(-c5ccc(-c6cn(CCOCCOCCOc7ccc(-c8oc9ccccc9c(=O)c8OCc8cccc(C(=O)OC)c8)cc7)nn6)cc5)nn4)cc3)oc3ccccc3c2=O)c1`, the IC50 is reported as > 100 µM. In the case of `COC(=O)c1cccc(COc2c(-c3ccc(OCCOCCOCCn4cc(CN(Cc5ccccc5)Cc5cn(CCOCCOCCOc6ccc(-c7oc8ccccc8c(=O)c7OCc7cccc(C(=O)OC)c7)cc6)nn5)nn4)cc3)oc3ccccc3c2=O)c1`, the IC50 is reported as > 100 µM.
